# Assay results from patent US8648089B2, “1,3,6-substituted indole derivatives having inhibitory activity for protein kinase” (Korea Institute of Science and Technology, priority 2009, dated 2014).
# Biological target: B-Raf-V600E kinase (Homo sapiens, UniProt P15056, V600E)
# Assay: B-Raf kinase activity (kinase cascade assay)
# Type: biochemical
# Conditions: MEK1/Erk2/MBP, [γ-32P] ATP, read-out: B-Raf-V600E kinase inhibitory activity (IC50)
# Description: Measurement of B-Raf Kinase Activity (Kinase Cascade Assay)
# (1) Activation of MAP Kinase 2/Erk2 by B-Raf
# Magnesium/ATP solution (500 μM ATP, 75 mM magnesium chloride) was prepared (10 μL). Diluted B-Raf-V600E enzyme (2.5 μL) was added at a final concentration of 1 ng/mL. and inactivated MEK1 (1.6 μL) was added at a final concentration of 0.4 μg/mL. Then, inactivated MAP Kinase 2/Erk2 (4 μL) was added at a final concentration of 1.0 μg/mL. The test compound was prepared at a concentration of 10 mM in dimethylsulfoxide (DMSO) and diluted to various concentrations (DMSO 2.6%). The final volume was adjusted to 38 μL by adding Assay Dilution Butter I (ADBI) and the mixture was allowed to react at 30° C. for 30 minutes. 5 μL of the mixture solution was taken to perform the next process.
# (2) Phosphorylation of Myelin Basic Protein (MBP)
# The mixture solution (5 μL) was treated with assay dilution buffer (10 μL) and then with myelin basic protein (MBP, 2 mg/mL, 10 μL). [γ-32P] ATP (100 μCi/container) diluted to 1/10 was added in 10 μL aliquots. After reaction at 30° C. for […] and then placing P81 paper in a scintillation vial, spotting was performed slowly using 25 μL of the reaction mixture. After washing 4 times with 0.75% phosphoric acid for 10 minutes and washing once with acetone for 5 minutes, 5 mL of scintillation cocktail was added to the scintillation vial. Signals were recorded using a scintillation counter.
# B-Raf-V600E kinase, sequence (P15056 whole entry V600E): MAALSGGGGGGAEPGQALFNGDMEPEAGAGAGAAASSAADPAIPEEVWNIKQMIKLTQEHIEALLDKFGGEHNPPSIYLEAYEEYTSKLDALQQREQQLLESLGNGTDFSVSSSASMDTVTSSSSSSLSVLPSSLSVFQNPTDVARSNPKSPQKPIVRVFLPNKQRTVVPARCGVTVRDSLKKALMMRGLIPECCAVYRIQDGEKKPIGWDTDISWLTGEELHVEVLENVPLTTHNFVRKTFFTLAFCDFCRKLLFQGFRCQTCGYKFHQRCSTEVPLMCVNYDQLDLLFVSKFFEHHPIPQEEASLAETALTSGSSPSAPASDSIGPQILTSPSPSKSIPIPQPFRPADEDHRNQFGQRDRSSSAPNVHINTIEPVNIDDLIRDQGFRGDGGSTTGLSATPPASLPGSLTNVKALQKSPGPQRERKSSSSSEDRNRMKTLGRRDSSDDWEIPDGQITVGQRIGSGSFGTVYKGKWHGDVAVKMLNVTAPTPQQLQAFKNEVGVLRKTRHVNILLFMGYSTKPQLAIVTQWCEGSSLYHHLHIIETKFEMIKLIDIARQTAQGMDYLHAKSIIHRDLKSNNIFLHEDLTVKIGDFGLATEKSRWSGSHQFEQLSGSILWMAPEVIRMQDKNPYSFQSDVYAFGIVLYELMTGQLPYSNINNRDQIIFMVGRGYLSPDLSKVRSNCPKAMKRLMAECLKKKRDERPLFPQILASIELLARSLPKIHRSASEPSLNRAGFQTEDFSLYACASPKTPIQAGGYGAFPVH
row,Compound,IC50 [µM]
1,"CNc1cc(-n2cc(-c3ccc(OC)cc3)c3ccc(-c4cccc(NC(=O)Nc5ccccc5OC)c4)cc32)ncn1 [Example 39, 1-(2-methoxyphenyl)-3-(3-(3-(4-methoxyphenyl)-1-(6-(methylamino)pyrimidin-4-yl)-1H-indol-6-yl)phenyl)urea]",< 10
2,4-(6-(4-methoxyphenyl)-1-(6-(methylamino)pyrimidin-4-yl)-1H-indol-3-yl)benzoate [Example 30],< 10
3,"CC(=O)Nc1cccc(-c2ccc3c(-c4ccc(OCCN(C)C)cc4)cn(-c4ccncc4)c3c2)c1 [Example 25, N-(3-(3-(4-(2-(dimethylamino)ethoxy)phenyl)-1-(pyridin-4-yl)-1H-indol-6-yl)phenyl)acetamide]",< 10
4,"CNc1cc(-n2cc(-c3cccc(N)c3)c3ccc(-c4ccc(OC)cc4)cc32)ncn1 [Example 27, 6-(3-(3-aminophenyl)-6-(4-methoxyphenyl)-1H-indol-1-yl)-N-methylpyrimidin-4-amine]",< 10

# System: A375P cells
# Assay: Inhibitory activity against proliferation of A375P melanoma cells (MTT assay)
# Type: cell-based
# Conditions: A375P human melanoma cells with B-Raf-V600E
# Description: Measurement of Inhibitory Activity Against Proliferation of A375P Melanoma Cells
# A375P cells purchased from ATCC were cultured in DMEM [10% FBS, 1% penicillin/streptomycin] at 37° C. in the presence of 5% CO2. The cultured A375P cells were harvested with 0.05% trypsin-0.02% EDTA and seeded in a 96-well plate at 5×10^3 cells per well.
# 3-(4,5-Dimethylthiazol-2-yl)-2,5-diphenyltetrazolium bromide (MTT) assay (CellTiter 96 Assay, Promega) was employed to measure cell viability. After adding 15 μL of a dye per well and culturing for 2 hours, the cells were treated with 100 μL of a stop solution and absorbance was measured 24 hours later. The test compound was treated a day after plating. The test compound had been sequentially diluted at 12 concentrations from a 10 mM stock solution using sterilized dimethylsulfoxide (DMSO) and treated with an amount of 0.5 μL. Absorbance at 590 nm was recorded using EnVision2103, and GI50 value was calculated using GraphPad Prism 4.0 software.
# The inhibitory activity against proliferation of the A375P cells of some typical compounds according to the present invention is given in Table 2.
row,Compound,GI50 [µM]
1,"COc1ccc(-c2cn(-c3ccncc3)c3cc(N4CCNCC4)ccc23)cc1 [Example 14, 3-(4-methoxyphenyl)-6-(piperazin-1-yl)-1-(pyridin-4-yl)-1H-indole]",< 10
2,"CNc1cc(-n2cc(-c3ccc(OC)cc3)c3ccc(-c4cccc(NC(=O)Nc5ccccc5OC)c4)cc32)ncn1 [Example 39, 1-(2-methoxyphenyl)-3-(3-(3-(4-methoxyphenyl)-1-(6-(methylamino)pyrimidin-4-yl)-1H-indol-6-yl)phenyl)urea]",< 10
3,"O=[N+]([O-])c1cccc(-c2ccc3c(Br)cn(-c4cc(Cl)ncn4)c3c2)c1 [Example 9, 3-bromo-1-(6-chloropyrimidin-4-yl)-6-(3-nitrophenyl)-1H-indole]",< 10
4,4-(6-(4-methoxyphenyl)-1-(6-(methylamino)pyrimidin-4-yl)-1H-indol-3-yl)benzoate [Example 30],< 10
5,"CNc1cc(-n2cc(-c3ccc(C(=O)NCCN4CCOCC4)cc3)c3ccc(-c4ccc(OC)cc4)cc32)ncn1 [Example 31, 4-(6-(4-methoxyphenyl)-1-(6-(methylamino)pyrimidin-4-yl)-1H-indol-3-yl)-N-(2-morpholinoethyl)benzamide]",< 10
6,"COc1ccc(-c2cn(-c3ccncc3)c3cc(N4CCN(C(=O)OC(C)(C)C)CC4)ccc23)cc1 [Example 13, tert-butyl 4-(3-(4-methoxyphenyl)-1-(pyridin-4-yl)-1H-indol-6-yl)piperazine-1-carboxylate]",< 10
7,"COc1ccc(-c2cn(-c3ccnc([S+](C)[O-])n3)c3cc(-c4cccc([N+](=O)[O-])c4)ccc23)cc1 (stereo not drawn) [Example 33, 3-(4-methoxyphenyl)-1-(2-(methylsulfinyl)pyrimidin-4-yl)-6-(3-nitrophenyl)-1H-indole]",< 10
8,"CNc1cc(-n2cc(-c3cccc(N)c3)c3ccc(-c4ccc(OC)cc4)cc32)ncn1 [Example 27, 6-(3-(3-aminophenyl)-6-(4-methoxyphenyl)-1H-indol-1-yl)-N-methylpyrimidin-4-amine]",< 10
9,"CNc1cc(-n2cc(-c3cccc(NC(=O)Nc4ccc(Cl)c(C(F)(F)F)c4)c3)c3ccc(-c4ccc(OC)cc4)cc32)ncn1 [Example 45, 1-(4-chloro-3-(trifluoromethyl)phenyl)-3-(3-(6-(4-methoxyphenyl)-1-(6-(methylamino)pyrimidin-4-yl)-1H-indol-3-yl)phenyl)urea]",< 10
10,"CNc1cc(-n2cc(-c3cccc([N+](=O)[O-])c3)c3ccc(-c4ccc(OC)cc4)cc32)ncn1 [Example 26, 6-(6-(4-methoxyphenyl)-3-(3-nitrophenyl)-1H-indol-1-yl)-N-methylpyrimidin-4-amine]",< 10
11,"CNc1cc(-n2cc(-c3cccc(NC(C)=O)c3)c3ccc(-c4ccc(OC)cc4)cc32)ncn1 [Example 28, N-(3-(6-(4-methoxyphenyl)-1-(6-(methylamino)pyrimidin-4-yl)-1H-indol-3-yl)phenyl)acetamide]",< 10
12,"CNc1cc(-n2cc(-c3ccc(OC)cc3)c3ccc(-c4cccc(NC(=O)Nc5ccc(Cl)c(C(F)(F)F)c5)c4)cc32)ncn1 [Example 37, 1-(4-chloro-3-(trifluoromethyl)phenyl)-3-(3-(3-(4-methoxyphenyl)-1-(6-(methylamino)pyrimidin-4-yl)-1H-indol-6-yl)phenyl)urea]",< 10

# System: A375 melanoma cells
# Assay: not given
# Conditions: read-out: proliferation of A375 melanoma cells IC50; cited from earlier work
row,Compound,IC50 [nM]
1,CCCS(=O)(=O)Nc1ccc(F)c(C(=O)c2c[nH]c3ncc(Cl)cc23)c1F [PLX4720],500

# System: not given
# Assay: not given
# Conditions: 600 mg twice a day, clinical; cited from earlier work
row,Compound,skin toxicity on administration
1,"CNC(=O)c1cc(Oc2ccc(NC(=O)Nc3ccc(Cl)c(C(F)(F)F)c3)cc2)ccn1 [sorafenib, Sorafenib]",grade 3 skin toxicity
